Structures are written as SMILES. Numbers after ± are expanded uncertainties.

For the data set the following is noted: 303.15 K; 101.33 kPa; Liquid.

On to `C1COCO1` [1,3-dioxolane], for which the mass density (as a rule, mass per unit of volume) is reported as 1051.8 ± 1.2 kg/m3; the speed of sound – broadly, the propagation velocity of pressure waves in the medium – came out at 1288.5 ± 2.6 m/s; the viscosity (commonly the internal friction of a fluid under shear) was 0.5487 ± 0.03 mPa·s.

As to `CC(C)(C)O` [2-methylpropan-2-ol], the mass density is given as 775.1 ± 0.9 kg/m3, the speed of sound was found to be 1078.8 ± 2.3 m/s and the viscosity is reported as 3.099 ± 0.14 mPa·s.

As for `CC(C)CCO` [3-methylbutan-1-ol], the mass density is reported as 803.2 ± 0.9 kg/m3, the speed of sound came out at 1197 ± 2.5 m/s and the viscosity worked out at 3.111 ± 0.14 mPa·s.

As for `CCCCO` [butan-1-ol], the mass density was found to be 802.1 ± 0.9 kg/m3, the speed of sound was 1196.6 ± 2.5 m/s and the viscosity was found to be 2.54 ± 0.11 mPa·s.

With `CCC(C)O` (centres undefined) [butan-2-ol], the mass density turned out to be 799.2 ± 0.9 kg/m3, the speed of sound worked out at 1168.9 ± 2.4 m/s and the viscosity amounted to 2.339 ± 0.11 mPa·s.

As for `CCO` [ethanol], the mass density was found to be 784.4 ± 0.9 kg/m3, the speed of sound worked out at 1144.3 ± 2.4 m/s and the viscosity amounted to 0.9675 ± 0.048 mPa·s.

With `CO` [methanol], the mass density turned out to be 782.4 ± 0.9 kg/m3, the speed of sound came to 1088.5 ± 2.3 m/s and the viscosity is 0.5041 ± 0.028 mPa·s.

For the compound `CCCO` [propan-1-ol], the mass density amounted to 795.8 ± 0.9 kg/m3, the speed of sound came out at 1182.6 ± 2.5 m/s and the viscosity is listed as 1.663 ± 0.078 mPa·s.

Take `CC(C)O` [propan-2-ol]: the mass density came out at 777.3 ± 0.9 kg/m3, the speed of sound is on record as 1126.6 ± 2.4 m/s and the viscosity is given as 1.614 ± 0.076 mPa·s.

Take `O` [water]: the speed of sound came out at 1505.2 ± 3 m/s and the viscosity is 0.7975 ± 0.041 mPa·s.

These data come from the NIST ThermoML archive (doi:10.1016/j.fluid.2006.02.023).
